Assay results from publication PMC4901321, “Screening of saponins and sapogenins from Medicago species as potential PPARγ agonists and X-ray structure of the complex PPARγ/caulophyllogenin” (Scientific Reports, 2016).
Entries after “also recorded” stand apart in the source; their conditions may differ. Like-named read-outs stand apart in the source and are kept apart here. Each block holds one compound with its values, some of them ahead of it.

Experiments:
[1] = molecular target: T1, PPARγ (Homo sapiens, UniProt P37231); experiment: Displacement experiments against rosiglitazone (antagonist behavior, transactivation); format: cell-based
T1 construct: expressed in transfected cells; host or cells: HepG2
T1 sequence (P37231 238-503 limits assumed): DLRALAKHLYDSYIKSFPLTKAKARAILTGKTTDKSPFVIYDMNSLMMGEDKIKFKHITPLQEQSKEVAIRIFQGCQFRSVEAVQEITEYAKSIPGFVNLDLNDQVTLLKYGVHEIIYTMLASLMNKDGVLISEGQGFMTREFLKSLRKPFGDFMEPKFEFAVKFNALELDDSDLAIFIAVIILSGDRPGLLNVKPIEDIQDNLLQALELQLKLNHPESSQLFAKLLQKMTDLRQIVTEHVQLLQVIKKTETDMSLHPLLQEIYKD
Protocol: The antagonist behavior of the above compounds was also evaluated in displacement experiments against rosiglitazone.
For transactivation assays, 1·10^5 cells per well were seeded in a 96-well plate and transfected after 24 h with K2 Transfection System (Biontex Laboratories GmbH), according to the manufacturer’s protocol using 0.20 μg/well of DNA. Cells were transfected with expression plasmids encoding the fusion protein Gal4-PPARα-LBD or Gal4-PPARγ-LBD, pGal5TKpGL3, and pCMVβgal to normalize the transfection efficacy. 24 h after transfection, medium was replaced with fresh complete growth medium supplemented with test compounds (ranging from 200 nM to 100 μM), reference compounds Wy-14,643 (10 μM) and rosiglitazone (2 μM), or DMSO 0.1%. After further 24 h of incubation cells were lysed and luciferase activity in cell extracts was determined by a luminometer (VICTOR^3 V Multilabel Plate Reader, PerkinElmer, Monza, Italy) and normalized for β-galactosidase activity. Fold induction activity was calculated and plotted using GraphPad Prism5 software.

[2] = tested on: HepG2 cells; experiment: MTT assay for cell viability; format: cell-based, human; settings: for IC50: read-out: IC50 (concentration that reduces the cell viability by 50%)
Protocol: Human hepatocellular liver carcinoma cell line HepG2 (Interlab Cell Line Collection, Genoa, Italy) was cultured in Minimum Essential Medium (MEM) containing 10% heat-inactivated fetal bovine serum, 100 U·mL^−1 of penicillin G, and 100 μg·mL^−1 of streptomycin sulfate at 37 °C in a humidified atmosphere of 5% CO2.
Cell viability was measured using the MTT assay. HepG2 cells were seeded at a density of 1·10^5 cells/well into 96-well flat bottom culture plates containing test compounds (ranging from 200 nM to 100 μM final concentration), in a final volume of 100 μL. […] Control wells lacked inhibitor. After 24 h of incubation at 37 °C in a 5% CO2 atmosphere, 3-(4,5-dimethylthiazole-2-yl)-2,5-diphenyltetrazolium bromide (MTT, 5 mg/mL stock solution) was added to a final concentration of 0.5 mg/mL. To control for background absorbance, six wells of cells were lysed by adding Triton X-100 (0.1% v/v final concentration) immediately prior to the addition of MTT reagent. After incubation under the same conditions for further 3–4 h, the culture medium was removed, the insoluble product dissolved by the addition of 100 μL of solvent (50% DMSO, 50% EtOH v/v), and the absorbance of the well was measured at 570 nm using a PERKIN–ELMER Victor V^3 plate reader. Cell growth inhibition was then calculated using the following Equation,
where V% is the percentage of cell viability, A is the absorbance of treated cultures, Ab is the absorbance of background control, and Ac is the absorbance of control cultures.

[3] = molecular target: T2, PPARγ LBD (Homo sapiens, UniProt P37231); experiment: Surface plasmon resonance, PPARγ receptor/saponin or sapogenin interactions; format: binding; settings: for affinity to the nuclear receptor: in words; for Kd: koff/kon
T2 construct: PPARγ LBD was expressed as N-terminal His-tagged proteins using a pET28 vector; His tag (N, cleaved yes); made in house; host or cells: E. coli BL21 DE3
T2 sequence (P37231 238-503 limits assumed): T1 sequence (P37231 238-503 limits assumed)
Protocol: PPARγ LBD was expressed as N-terminal His-tagged proteins using a pET28 vector and then purified as previously described[40]. Briefly, freshly transformed E. coli BL21 DE3 were grown in LB medium with 30 μg of kanamycin/mL at 310 K to an OD of 0.6. […] Cells were harvested and resuspended in a 20 mL/liter culture of Buffer A (20 mM Tris, 150 mM NaCl, 10% glycerol, 1 mM Tris 2-carboxyethylphosphine HCl (TCEP), pH 8) in the presence of protease inhibitors (Complete Mini EDTA-free; Roche Applied Science). Cells were sonicated, and the soluble fraction was isolated by centrifugation (35,000 × g for 45 min). The supernatant was loaded onto a Ni^2+ -nitrilotriacetic acid column (GE Healthcare) and eluted with a gradient of imidazole 0–300 mM in Buffer A (batch method). The pure protein was identified by SDS PAGE. The protein was then dialyzed over buffer A to remove imidazole, and it was cleaved with thrombin protease (GE Healthcare) (10 units/mg) at room temperature for 2 h. The digested mixture was reloaded onto a Ni^2+ -nitriloacetic acid column to remove His tag and the undigested protein. The flow-through was loaded onto a Q-Sepharose HP column (GE Healthcare) and eluted with a gradient of NaCl 0–500 mM in Buffer B (20 mM Tris, 10% glycerol, 1 mM TCEP, pH 8) with a BioLogic DuoFlow FPLC system (Bio-Rad Laboratories, Italy). Finally, the protein was purified by gel-filtration chromatography on a HiLoad Superdex 75 column (GE Healthcare) and eluted with Buffer C (20 mM Tris, 1 mM TCEP, 0.5 mM EDTA, pH 8). The protein was then concentrated at 8 mg/mL using Amicon centrifugal concentrators with a 10 kDa cutoff membrane (Millipore, USA). Part of the protein was used for SPR experiments.
Surface plasmon resonance analyses were performed by using Pioneer AE optical biosensor equipped with COOH5 chips (SensiQ). PPARγ surfaces were prepared by using standard amine-coupling procedures[45] and HBS (Hepes-buffered saline: 20 mM Hepes, 150 mM sodium chloride, 0.005% P20, pH 7.4) as the running buffer. Flow cells were activated for 7 min by injecting 140 μL of 50 mM N-hydroxysuccinimide (NHS):200 mM ethyl-3(3-dimethylamino) propyl carbodiimide (EDC). Fifty μL of a 0.25 mg/mL PPARγ solution (in 10 mM sodium acetate, pH 5.0) were injected for 5 min at 10 μL/min on channels 1 and 3 (channel 2 was used as ref. [3], for a duplicate experiment), followed by a 70-μL injection of ethanolamine to block any remaining activated groups on the surface. […] The screening of the analytes (saponins and sapogenins) was performed using HBS without P20, with 1 mM DTT and 2% DMSO. To collect detailed kinetic data the OneStep[46][47][48] protocol was used, injecting the analytes at a flow rate of 50 μL/min and at the concentration of 100 μM (50 μM for 14 and 15) over the three channels at 20 °C (association phase of 180 s). Five buffer blanks were injected for double referencing . […] A DMSO calibration plot was constructed (buffer sample containing 1–3% (vol/vol) DMSO) to correct for bulk refractive index shifts[49]. Data were collected at a rate of 20 Hz. All sensorgrams were processed by using double referencing[50]. First, the responses from the reference surface (channel 2) were subtracted from the binding responses collected over the reaction surfaces to correct for bulk refractive index changes.

[4] = molecular target: T2, PPARγ LBD; experiment: Isothermal titration calorimetry; format: binding
Protocol: ITC experiments were performed at 22 °C by using a ITC200 microcalorimeter (MicroCal, Inc., Northampton, MA, USA). […] DMSO was added to the protein solution at the same percentage of the ligand solution (2%) for the experiment with SAP19. The protein solution (50 μM) was placed in the sample cell, and ligand solution (500 μM) was loaded into the syringe injector (PPARγ 40 μM and the ligand 400 μM for the experiment with 13-HODE) . The titrations involved 19 injections of 2 μL each at 150 s intervals. A reference titration of ligand into buffer was used to correct for heats of dilution. Thermodynamic data was processed with Origin 7.0 software (MicroCal). Fitting the isotherms with one-site binding model yealded the values of the association constant (Ka).

[5] = tested on: PPARγ; parameters: method as in PMID 25487878; settings: cited from earlier work
[6] = SPR, 20 °C, 1:1 model, for 2:1 model fits the first value (high affinity site), error in parentheses
[7] = ITC fit, OneSites model, Supplementary Fig. S3

Compound: echinocystic acid [SAP18]
reduction of the effects of rosiglitazone ([1]; at 5 μM): 40% | antagonist behavior towards PPARγ ([1]; in words): antagonist activity | IC50 ([2]; HepG2, MTT, 24 h): 4.1 ± 0.4 µM | Koff ([3]; SPR, 2:1 molecular interaction model, second value in cell (second site)): 0.715(0.002) s^−1 | Koff [3, 6]: 0.0014 s⁻¹ | Kon [3, 6]: 144.8(0.2) M^−1s^−1

K (association constant) [4, 7]: 106000 M⁻¹ | ΔH [4, 7]: -2.206 kcal/mol | ΔS [4, 7]: 15.5 cal/mol/deg | ΔH ([4]; ITC, 22 °C): -2.21 kcal/mol | −TΔS ([4]; ITC, 22 °C): -4.56 kcal/mol | Kd ([4]; ITC, 22 °C, one-site model): 9.4 µM
Compound: CCCCC[C@H](O)/C=C/C=C\CCCCCCCC(=O)O [13-(S)-HODE]

affinity to the nuclear receptor ([3]; SPR): didn’t show affinity
Compound: CC1(C)CC[C@]2(C(=O)O)CC[C@]3(C)C(=CCC4[C@@]5(C)C[C@H](O)[C@H](O)[C@@](C)(CO)C5CC[C@]43C)C2C1 (stereo partly drawn) [SAP21, bayogenin]

Compound: C[C@@H]1O[C@@H](O[C@H]2[C@H](O[C@H]3[C@H](O[C@H]4CC[C@@]5(C)[C@@H](CC[C@]6(C)[C@@H]5CC=C5[C@@H]7CC(C)(C)C[C@@H](O)[C@]7(C)CC[C@]56C)[C@@]4(C)CO)O[C@H](C(=O)O)[C@@H](O)[C@@H]3O)O[C@H](CO)[C@H](O)[C@@H]2O)[C@H](O)[C@H](O)[C@H]1O [SAP17, soyasaponin I]
cytotoxicity ([2]; HepG2, concentrations up to 100 μM): did not show cytotoxicity; also recorded: did not show any cytotoxic activity | IC50 ([2]; Homo sapiens, HepG2, 24 h): > 100 µM | Koff [3]: 1.68 s⁻¹ | Kd ([3]; Kd, SPR, 1:1 model, for 2:1 model fits the first value (high affinity site)): 32.5 µM

Compound: CC(C)=CCC[C@](C)(O)[C@H]1CC[C@]2(C)[C@@H]1[C@H](O)C[C@@H]1[C@@]3(C)CC[C@H](O)C(C)(C)[C@@H]3[C@@H](O)C[C@]12C [protopanaxatriol]
activity towards PPARγ [5]: antagonist activity

affinity to the nuclear receptor ([3]; SPR): didn’t show affinity
Compound: CC1(C)C[C@@H](O)[C@]2(C)CC[C@]3(C)C(=CC[C@@H]4[C@@]5(C)CC[C@H](O)[C@](C)(CO)[C@@H]5CC[C@]43C)[C@@H]2C1 [SAP24, soyasapogenol B]

Compound: CC1(C)CC[C@]2(C(=O)O)CC[C@]3(C)C(=CC[C@@H]4[C@@]5(C)CC[C@H](O)[C@@](C)(CO)[C@@H]5CC[C@]43C)[C@@H]2C1 [SAP20, hederagenin]
affinity to the nuclear receptor ([3]; SPR): didn’t show affinity | Kd ([3]; SPR, 1:1 model, for 2:1 model fits the first value (high affinity site), read-out: Kd): > 1000 µM
